Test results: patent US20240199701A1, “IMMUNOMODULATORS” (BRISTOL-MYERS SQUIBB COMPANY, priority 2021, published 2024)
Where two headings read alike, the source gives them in different places. Starred links: 1 amine or outer side, 2 acyl side, 3 side chain; linkers in the order of their positions; H or OH if unused. Positions of bridges follow the written chain, without caps; N, C: chain ends. Non-standard residues stand in square brackets, D forms with d. Groups on a side chain read outwards from the residue. Primed or numbered codes have the meaning given here. *: point of attachment. Trp(1-CH2CO) = O=C([C@H](Cc1cn(CC(=O)[*:3])c2ccccc12)N[*:1])[*:2]; Pra′ = C-terminal residue bearing an alkyne, joined as triazole; Hexadecanoyl(16-SO3H) = O=C(CCCCCCCCCCCCCCCS(=O)(=O)O)*; γGlu = O=C(O)[C@H](CCC(=O)[*:2])N[*:1]; Hyp = O=C(O)[C@@H]1C[C@@H](O)CN1; NMeNle = CCCC[C@H](NC)C(=O)O; PEG11′ = not defined here; NMeA = CN[C@@H](C)C(=O)O; Dab = NCC[C@H](N)C(=O)O; Dap = NC[C@H](N)C(=O)O

How the values were obtained:
[1] = molecular target: T1, 293T-hPD-L1 cells (binding of PE-labeled PD-1-Ig to human PD-L1) (Homo sapiens, UniProt Q9NZQ7); test: 293T-hPD-L1 Cell Binding High-Content Screening Assay (CBA); type: cell-based; conditions: 293T cells over-expressing human PD-L1, PE-labeled PD-1-Ig 0.5 nM, 10% fetal calf serum; read-out: 293T-hPD-L1_PD-1 IC50
T1 construct: expressed in transfected cells
Experimental: 293T-hPD-L1 Cell Binding High-Content Screening Assay (CBA). Phycoerythrin (PE) was covalently linked to the Ig epitope tag of human PD-1-Ig and fluorescently-labeled PD-1-Ig was used for binding studies with a human embryonic kidney cell line (293T) stably over-expressing human PD-L1 (293T-hPD-L1). Briefly, 2×10^3 293T-hPD-L1 cells were seeded into 384 well plates in 20 μl of DMEM supplemented with 10% fetal calf serum and cultured overnight. 125 nl of compound was added to cells followed by 5 μl of PE-labeled PD-1-Ig (0.5 nM final), diluted in DMEM supplemented with 10% fetal calf serum, followed by incubation at 37° C. for Ih. Cells were washed 3× in 100 μl dPBS followed by fixation with 30 μl of 4% paraformaldehyde in dPBS containing 10 μg/ml Hoechst 33342 for 30 min at room temperature. Cells were washed 3× in 100 μl of dPBS followed by final addition of 15 μl of dPBS. Data was collected and processed using a Cell Insight NXT High Content Imager and associated software.

PD-1-Ig/PD-L1-His = molecular target: T2, PD-1-Ig/PD-L1-His (Homo sapiens, UniProt Q9NZQ7); test: PD-1/PD-L1 Homogenous Time-Resolved Fluorescence (HTRF) binding assay
T2 construct: hPDL1(19-239)-TVMV-His; TVMV protease cleavage site (C); made in house; host or cells: HEK293T
Source text: The ability of the macrocyclic peptides of the present disclosure to bind to PD-L1 was investigated using a PD-1/PD-L1 Homogenous Time-Resolved Fluorescence (HTRF) binding assay.
Homogenous Time-Resolved Fluorescence (HTRF) Assays of Binding of Soluble PD-1 to Soluble PD-L1. Soluble PD-1 and soluble PD-L1 refers to proteins with carboxyl-end truncations that remove the transmembrane-spanning regions and are fused to heterologous sequences, specifically the Fc portion of the human immunoglobulin G sequence (Ig) or the hexahistidine epitope tag (His). All binding studies were performed in an HTRF assay buffer consisting of dPBS supplemented with 0.1% (w/v) bovine serum albumin and 0.05% (v/v) Tween-20. For the PD-1-Ig/PD-L1-His binding assay, inhibitors were pre-incubated with PD-L1-His (10 nM final) for 15 m in 4 μl of assay buffer, followed by addition of PD-1-Ig (20 nM final) in 1 μl of assay buffer and further incubation for 15 m. PD-L1 fusion proteins from either human, cynomologous macaques, mouse, or other species were used. HTRF detection was achieved using europium crypate-labeled anti-Ig monoclonal antibody (1 nM final) and allophycocyanin (APC) labeled anti-His monoclonal antibody (20 nM final). Antibodies were diluted in HTRF detection buffer and 5 μl was dispensed on top of binding reaction. The reaction was allowed to equilibrate for 30 minutes and signal (665 nm/620 nm ratio) was obtained using an EnVision fluorometer. Additional binding assays were established between PD-1-Ig/PD-L2-His (20 and 5 nM, respectively), CD80-His/PD-L1-Ig (100 and 10 nM, respectively) and CD80-His/CTLA4-Ig (10 and 5 nM, respectively).
Recombinant Proteins. Carboxyl-truncated human PD-1 (amino acids 25-167) with a C-terminal human Ig epitope tag [hPD-1 (25-167)-3S-IG] and human PD-L1 (amino acids 18-239) with a C-terminal His epitope tag [hPD-L1(19-239)-tobacco vein mottling virus protease cleavage site (TVMV)-His] were expressed in HEK293T cells and purified sequentially by recombinant Protein A affinity chromatography and size exclusion chromatography. Human PD-L2-His (Sino Biologicals), CD80-His (Sino Biologicals), CTLA4-Ig (RnD Systems) were all obtained through commercial sources.

[2] = molecular target: Recombinant Human PD-L1-TVMV-His, hPDL1(19-239)-TVMV-His (human) (UniProt Q9NZQ7); test: HTRF competition, inhibits PD-1-Ig binding to PD-L1-His
[3] = soluble hPD-1-Ig / hPD-L1-His, HTRF, read-out: LE HTRF hPD1 hPDL1 IC50

T1 sequence (Q9NZQ7 19-290): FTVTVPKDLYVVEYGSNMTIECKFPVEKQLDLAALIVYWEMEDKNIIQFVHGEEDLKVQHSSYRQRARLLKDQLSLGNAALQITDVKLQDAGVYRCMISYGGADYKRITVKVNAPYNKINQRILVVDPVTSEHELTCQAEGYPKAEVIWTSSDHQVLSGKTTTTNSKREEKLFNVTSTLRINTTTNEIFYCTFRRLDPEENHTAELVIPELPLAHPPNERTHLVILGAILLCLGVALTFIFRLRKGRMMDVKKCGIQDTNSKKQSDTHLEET
Sequence of Recombinant Human PD-L1-TVMV-His, hPDL1(19-239)-TVMV-His (human) (Q9NZQ7 other isoform, or with tags, fused parts or gaps limits assumed): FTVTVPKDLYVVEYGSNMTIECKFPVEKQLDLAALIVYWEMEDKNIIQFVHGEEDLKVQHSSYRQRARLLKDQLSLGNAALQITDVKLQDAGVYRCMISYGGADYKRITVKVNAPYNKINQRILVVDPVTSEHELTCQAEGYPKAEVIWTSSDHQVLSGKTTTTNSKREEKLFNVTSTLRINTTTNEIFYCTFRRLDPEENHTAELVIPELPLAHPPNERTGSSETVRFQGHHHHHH

IC50 [1] [nM]	IC50 (PD-1-Ig/PD-L1-His; [3]) [nM]	Molecule	also measured
0.1	2	CCCC[C@H]1C(=O)N(C)[C@@H](CCCC)C(=O)N[C@@H](CC(C)C)C(=O)N[C@H](C(=O)N[C@@H](C)C(=O)N[C@@H](Cc2cn(CCOCCOCCOCCOCCOCCOCCOCCOCCOCCOCCOCCNC(=O)CC[C@H](NC(=O)CCCCCCCCCCCCCCCS(=O)(=O)O)C(=O)O)nn2)C(=O)O)CSCC(=O)N[C@@H](Cc2ccc(O)cc2)C(=O)N(C)[C@@H](C)C(=O)N[C@@H](CC(N)=O)C(=O)N2CCC[C@H]2C(=O)N[C@@H](CN)C(=O)N[C@@H](CC(C)C)C(=O)N2C[C@H](O)C[C@H]2C(=O)N[C@@H](Cc2c[nH]c3ccccc23)C(=O)N[C@@H](CCN)C(=O)N[C@@H](Cc2cn(CC(=O)O)c3ccccc23)C(=O)N1C [Example 1002]	–
–	38.1	CCCC[C@H]1C(=O)N(C)[C@@H](CCCC)C(=O)N[C@@H](CC(C)C)C(=O)N[C@H](C(=O)N[C@@H](CCCN)C(=O)N[C@@H](Cc2cn(CCOCCOCCOCCOCCOCCOCCOCCOCCOCCOCCOCCNC(=O)CC[C@H](NC(=O)CCCCCCCCCCCCCCCS(=O)(=O)O)C(=O)O)nn2)C(=O)O)CSCC(=O)N[C@@H](Cc2ccc(O)cc2)C(=O)N(C)[C@@H](C)C(=O)N[C@@H](CC(N)=O)C(=O)N2CCC[C@H]2C(=O)N[C@@H](CN)C(=O)N[C@@H](CC(C)C)C(=O)N2C[C@H](O)C[C@H]2C(=O)N[C@@H](Cc2c[nH]c3ccccc23)C(=O)N[C@@H](CCN)C(=O)N[C@@H](Cc2cn(CC(=O)O)c3ccccc23)C(=O)N1C [Example 1003]	–
61.8	–	CCCC[C@H]1C(=O)N(C)[C@@H](CCCC)C(=O)N[C@@H](CC(C)C)C(=O)N[C@H](C(=O)NCC(=O)N[C@@H](Cc2cn(CCOCCOCCNC(=O)[C@H](CCC(=O)O)NC(=O)CC[C@H](NC(=O)CCCCCCCCCCCCCCCS(=O)(=O)O)C(=O)O)nn2)C(=O)O)CSCC(=O)N[C@@H](Cc2ccc(O)cc2)C(=O)N(C)[C@@H](C)C(=O)N[C@@H](CC(N)=O)C(=O)N2CCC[C@H]2C(=O)N[C@@H](CN)C(=O)N[C@@H](CC(C)C)C(=O)N2C[C@H](O)C[C@H]2C(=O)N[C@@H](Cc2c[nH]c3ccccc23)C(=O)N[C@@H](CCN)C(=O)N[C@@H](Cc2cn(CC(=O)O)c3ccccc23)C(=O)N1C [Example 1006]	–
–	–	CCCC[C@H]1C(=O)N(C)[C@@H](CCCC)C(=O)N[C@@H](CC(C)C)C(=O)N[C@H](C(=O)NCC(=O)N[C@@H](Cc2cn(CCOCCOCCOCCOCCOCCOCCOCCOCCOCCOCCOCCNC(=O)CC[C@H](NC(=O)CCCCCCCCCCCCCCCP(=O)(O)O)C(=O)O)nn2)C(=O)O)CSCC(=O)N[C@@H](Cc2ccc(O)cc2)C(=O)N(C)[C@@H](C)C(=O)N[C@@H](CC(N)=O)C(=O)N2CCC[C@H]2C(=O)N[C@@H](CN)C(=O)N[C@@H](CC(C)C)C(=O)N2C[C@H](O)C[C@H]2C(=O)N[C@@H](Cc2c[nH]c3ccccc23)C(=O)N[C@@H](CCN)C(=O)N[C@@H](Cc2cn(CC(=O)O)c3ccccc23)C(=O)N1C [Example 1007]	IC50 (PD-1-Ig/PD-L1-His): 14 nM
0.13	–	CCCC[C@H]1C(=O)N(C)[C@@H](CCCC)C(=O)N[C@@H](CC(C)C)C(=O)N[C@H](C(=O)NCC(=O)N[C@@H](Cc2cn(CCOCCOCCOCCNC(=O)CC[C@H](NC(=O)CCCCCCCCCCCS(=O)(=O)O)C(=O)O)nn2)C(=O)O)CSCC(=O)N[C@@H](Cc2ccc(O)cc2)C(=O)N(C)[C@@H](C)C(=O)N[C@@H](CC(N)=O)C(=O)N2CCC[C@H]2C(=O)N[C@@H](CN)C(=O)N[C@@H](CC(C)C)C(=O)N2C[C@H](O)C[C@H]2C(=O)N[C@@H](Cc2c[nH]c3ccccc23)C(=O)N[C@@H](CCN)C(=O)N[C@@H](Cc2cn(CC(=O)O)c3ccccc23)C(=O)N1C [Example 1010]	–
–	–	{CH2CO}-Y[NMeA]NP[Dap]L[Hyp]W[Dab][Trp(1-CH2CO)][NMeNle][NMeNle]LC[Pra′]([PEG11′-γGlu-Hexadecanoyl(16-SO3H)])-OH (thioether N-14; also: Pra linked to Peg11 via triazole) [Example 1001]	IC50 [2]: 0.6 nM

Molecule	IC50 [1] [nM]	IC50 (PD-1-Ig/PD-L1-His; [3]) [nM]	also measured
CCCC[C@H]1C(=O)N(C)[C@@H](CCCC)C(=O)N[C@@H](CC(C)C)C(=O)N[C@H](C(=O)NCC(=O)N[C@@H](Cc2cn(CCOCCOCCOCCOCCOCCOCCOCCOCCOCCOCCOCCNC(=O)CC[C@H](NC(=O)CCCCCCCCCCCCCCCS(=O)(=O)O)C(=O)O)nn2)C(=O)O)CSCC(=O)N[C@@H](Cc2ccc(O)cc2)C(=O)N(C)[C@@H](C)C(=O)N[C@@H](CC(N)=O)C(=O)N2CCC[C@H]2C(=O)N[C@@H](CN)C(=O)N[C@@H](CC(C)C)C(=O)N2C[C@H](O)C[C@H]2C(=O)N[C@@H](Cc2c[nH]c3ccccc23)C(=O)N[C@@H](CCN)C(=O)N[C@@H](Cc2cn(CC(=O)O)c3ccccc23)C(=O)N1C [Example 1008]	1.2	7.3	–
